Measured values reported in patent US5308843A, “Method of inhibiting mammalian topoisomerase II and malignant cell growth in mammals, with substituted (S)-3-methyl-7-oxo-2,3-dihydro-7H-pyrido[1,2,3-de][1,4 ]-benzoxazine(and-benzothiazine)-6-carboxylic acids” (Sterling Drug Inc., priority 1990, dated 1994).

Columns and labels:
human topoisomerase II = molecular target: T1, human topoisomerase II (Homo sapiens, UniProt P11388); test: Mammalian (human) topoisomerase II inhibition assay: topo II-DNA complex stabilisation; type: biochemical; conditions: concentration with activity equal to the EC50 of reference mAMSA; 20 min at 37° C.
T1 construct: Topo II was purified from late log phase suspension cultures of HeLa WIS; endogenous in cells; host or cells: HeLa WIS (late log phase suspension cultures); native enzyme purified in house
T1 sequence (P11388 whole entry): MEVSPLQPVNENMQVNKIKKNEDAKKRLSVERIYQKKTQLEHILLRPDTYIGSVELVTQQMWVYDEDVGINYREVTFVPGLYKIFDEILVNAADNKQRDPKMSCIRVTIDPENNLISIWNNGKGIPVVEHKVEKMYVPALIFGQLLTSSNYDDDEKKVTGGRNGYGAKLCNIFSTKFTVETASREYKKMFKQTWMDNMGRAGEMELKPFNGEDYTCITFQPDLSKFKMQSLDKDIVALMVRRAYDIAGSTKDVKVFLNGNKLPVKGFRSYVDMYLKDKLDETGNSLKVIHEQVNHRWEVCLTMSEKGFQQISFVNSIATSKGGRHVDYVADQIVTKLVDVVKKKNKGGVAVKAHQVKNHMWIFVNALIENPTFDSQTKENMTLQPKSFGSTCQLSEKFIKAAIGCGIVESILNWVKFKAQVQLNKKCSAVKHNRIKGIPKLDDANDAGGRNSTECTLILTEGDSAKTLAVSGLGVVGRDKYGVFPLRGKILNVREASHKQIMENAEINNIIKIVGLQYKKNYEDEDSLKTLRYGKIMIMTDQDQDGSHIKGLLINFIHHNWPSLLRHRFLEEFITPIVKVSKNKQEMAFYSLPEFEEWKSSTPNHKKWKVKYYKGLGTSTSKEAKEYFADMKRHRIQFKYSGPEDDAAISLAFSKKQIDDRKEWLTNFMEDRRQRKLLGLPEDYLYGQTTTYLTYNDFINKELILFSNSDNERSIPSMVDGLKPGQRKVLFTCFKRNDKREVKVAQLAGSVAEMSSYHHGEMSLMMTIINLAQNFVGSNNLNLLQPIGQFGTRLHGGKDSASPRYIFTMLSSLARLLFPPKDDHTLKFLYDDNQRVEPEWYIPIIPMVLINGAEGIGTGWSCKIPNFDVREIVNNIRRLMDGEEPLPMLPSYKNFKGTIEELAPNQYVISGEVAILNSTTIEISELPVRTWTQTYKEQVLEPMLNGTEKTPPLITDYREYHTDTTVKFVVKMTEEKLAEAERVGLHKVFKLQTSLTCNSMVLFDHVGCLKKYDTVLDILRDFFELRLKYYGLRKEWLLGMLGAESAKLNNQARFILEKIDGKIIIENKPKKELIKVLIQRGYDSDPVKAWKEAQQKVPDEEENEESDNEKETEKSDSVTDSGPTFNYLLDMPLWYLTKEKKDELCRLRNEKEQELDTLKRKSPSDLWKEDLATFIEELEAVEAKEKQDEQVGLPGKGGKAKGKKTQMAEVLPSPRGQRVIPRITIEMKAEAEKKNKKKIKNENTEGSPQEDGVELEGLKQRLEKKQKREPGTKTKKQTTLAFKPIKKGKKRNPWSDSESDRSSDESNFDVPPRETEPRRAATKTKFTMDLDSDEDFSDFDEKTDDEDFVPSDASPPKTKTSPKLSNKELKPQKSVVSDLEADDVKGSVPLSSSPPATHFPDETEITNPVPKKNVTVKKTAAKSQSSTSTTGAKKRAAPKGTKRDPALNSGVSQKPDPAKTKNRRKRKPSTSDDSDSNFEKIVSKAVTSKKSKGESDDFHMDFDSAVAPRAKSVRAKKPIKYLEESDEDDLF
From the text: Mammalian Topoisomerase II Inhibition Assay Procedure
The inhibition of human topoisomerase II (hereafter topo II) was quantitated by a procedure adapted from that described by Trask et al., EMBO J., 3, 671-676 (1984). The assay quantitates the amount of topo II covalently complexed by DNA at equilibrium during a topo II reaction. This assay determines the potential of a compound to stabilize this complex, which potential is closely related to the cytotoxicity of the compound.
Topo II was purified from late log phase suspension cultures of HeLa WIS by an adaption of the method described by Per et al., Mol. Pharmacol., 32, 17-25 (1987).
Assays (in duplicate) were assembled at 4° C. Assay mix (25 μl) was distributed in Beckman (No. 265270) 1.5 ml microtitre tubes followed by the addition of 5 μl test compound to yield the final concentrations of assay components:
4 ng 3' end labeled (32p) pBR322 DNA (10^7 DPM/μg)
The assay mix including the test compound was incubated for 20 minutes at 37° C. The reaction was terminated at 37° C. by the addition of 3 μl 10% SDS followed by the addition of 266 μl 10 mM Tris-Cl pH 7.5, 20 μg/ml BSA, 20 μg/ml calf thymus DNA, 1% SDS.
A SDS/protein precipitate was formed by the addition of 28 μl 2.5M KCl followed by chilling on ice for a minimum of 10 minutes. The precipitate was collected and washed with a Brandell cell harvester on a GFB glass fiber filter membrane as follows. The contents of the assay tube were drawn up into the harvester. The tube was then rinsed 7× with 10 mM Tris-Cl pH 7.5, 1 mM EDTA and 100 mM KCl. The precipitate was washed with 1 L of a solution of 10 mM Tris-Cl pH 7.5, 1 mM EDTA, 100 mM KCl followed by 1 L of 95% ethyl alcohol and finally 0.5 L 70% of ethyl alcohol (per 48 samples in each case). After drying, CPM was determined by liquid scintillation counting with 5 ml Biofluor (NEN Research Products) or Readisafe (Beckman Instruments Inc.) cocktail.
Preparation of test compound--A stock solution (6 mg/ml) of test compound was prepared either in 0.1N sodium hydroxide or 0.2N hydrogen chloride. This solution then was diluted 1/5 into water and serially thereafter in either 0.02N sodium hydroxide or 0.04N hydrogen chloride, respectively. The stock solution and serial dilution of the test compound was stored at -20° C. prior to testing.
Screening of test compound--As an initial screen, the test compound was tested at a final concentration of 2, 20 and 200 μg/ml.
Controls--A solvent control which indicates the base level of topo II-DNA complex formed in the absence of the test compound was included in each test. A control, in which topo II was omitted, was included for each test compound at the highest drug concentration tested.
Reference agent--A dose response curve with mAMSA at 0.01, 0.08, 0.16, 0.32, 1.0 and 10 μg/ml was included in each test.
Data reduction--The EC50 (effective concentration at which 50% of the maximal DNA-topo II complex is formed) of a test compound is defined to be the concentration with activity equal to the EC50 of the reference agent, mAMSA. The maximal DNA-topo II complex formed is taken as that equal to that formed at the nearly saturating dose of mAMSA (10 μg/ml).

[1] = tested on: topoisomerase II of fetal calf thymus; conditions: among compared quinolones, Hoshino et al. 1989; cited from earlier work
[2] = tested on: DNA topoisomerase II from calf thymus; conditions: Hussy et al. 1986; cited from earlier work
[3] = tested on: procaryotic and eucaryotic topoisomerase enzymes; conditions: Jefson et al. 1989; cited from earlier work
[4] = tested on: purified eukaryotic topoisomerase II; conditions: Barrett et al. 1987; cited from earlier work

Q: Which EC50 (human topoisomerase II) does the source give for CCc1cc(-c2c(F)cc3c(=O)c(C(=O)O)cn4c3c2OC[C@@H]4C)cc(C)n1 [Example 2(d), (S)-10-(2-Ethyl-6-methyl-4-pyridinyl)-9-fluoro-2,3-dihydro-3-methyl-7-oxo-7H-pyrido[1,2,3-de][1,4]benzoxazine-6-carboxylic acid] here?
A: Its EC50 is 68 µM.

Q: For CC1COc2c(N3CCN(C)CC3)c(F)cc3c(=O)c(C(=O)O)cn1c23 (centres unmarked) [ofloxacin, 9-fluoro-3-methyl-10-(4-methyl-1-piperazinyl)-7-oxo-2,3-dihydro-7H-pyrido[1,2,3-de][1,4]benzoxazine-6-carboxylic acid], which “potency of inhibition of topoisomerase II (in words)” value [1] is on record?
A: The value was “lowest”.

Q: What about the “Ki values of 50% inhibition” value [2] of the same molecule?
A: The value was 1300 µg/mL.

Q: With C[C@H]1COc2c(-c3ccncc3)c(F)cc3c(=O)c(C(=O)O)cn1c23 [1(b), (S)-10-(4-Pyridinyl)-9-fluoro-2,3-dihydro-3-methyl-7-oxo-7H-pyrido[1,2,3-de][1,4]benzoxazine-6-carboxylic acid] as the molecule, how does the EC50 (human topoisomerase II) read?
A: Its EC50 is 57 µM.

Q: With O=C(O)c1cn(C2CC2)c2cc(N3CCNCC3)c(F)cc2c1=O [ciprofloxacin, 1-cycloproyl-6-fluoro-7-(1-piperazinyl)-1,4-dihydro-4-oxo-3-quinolinecarboxylic acid] as the molecule, how does the “Ki values of 50% inhibition” value [2] read?
A: Its value is 150 µg/mL.

Q: For C[C@H]1COc2c(-c3ccncc3)c(F)cc3c(=O)c(C(=O)O)cn1c23 [S-(-)-CP-92,121, (S)-9-fluoro-3-methyl-10-(4-pyridyl)-7-oxo-7H-pyrido[1,2,3-de][1,4]benzoxazine-6-carboxylic acid], which “combined activity against procaryotic and eucaryotic topoisomerase enzymes (in words)” value [3] is on record?
A: Its value is “combined potent activity”.

Q: With CCn1cc(C(=O)O)c(=O)c2cc(F)c(-c3ccncc3)c(F)c21 [CP-67,015, 6,8-difluoro-1-ethyl-7-(4-pyridyl)-1,4-dihydro-4-oxo-3-quinolinecarboxylic acid] as the molecule, how does the “enhancement/induction of DNA cleavage mediated by topoisomerase II (in words)” value [4] read?
A: Its value is “induced significant DNA cleavage in both the radiolabeled and cold cleavage assays”.

Q: For C[C@H]1COc2c(-c3ccc4ncccc4c3)c(F)cc3c(=O)c(C(=O)O)cn1c23 [S-(-)-CP-100,964, (S)-9-fluoro-3-methyl-10-(6-quinolyl)-7-oxo-7H-pyrido[1,2,3-de][1,4]benzoxazine-6-carboxylic acid], which “combined activity against procaryotic and eucaryotic topoisomerase enzymes (in words)” value [3] is on record?
A: Its value is “combined potent activity”.

Q: With CCc1cc(-c2c(F)cc3c(=O)c(C(=O)O)cn4c3c2OC[C@@H]4C)ccn1 [3(c), (S)-10-(2-Ethyl-4-pyridinyl)-9-fluoro-2,3-dihydro-3-methyl-7-oxo-7H-pyrido[1,2,3-de][1,4]benzoxazine-6-carboxylic acid] as the molecule, how does the EC50 (human topoisomerase II) read?
A: The EC50 was 92 µM.

Q: With Cc1cc(-c2c(F)cc3c(=O)c(C(=O)O)cn4c3c2OC[C@@H]4C)cc(C)n1 [Example 7, (S)-10-(2,6-Dimethyl-4-pyridinyl)-9-fluoro-3-methyl-7-oxo-2,3-dihydro-7H-pyrido[1,2,3-de][1,4]benzoxazine-6-carboxylic acid] as the molecule, how does the EC50 (human topoisomerase II) read?
A: Its EC50 is 31 µM.

Q: With Cc1cc(-c2c(F)c(F)c3c(=O)c(C(=O)O)cn4c3c2OC[C@@H]4C)cc(C)n1 [Example 6, (S)-10-(2,6-Dimethyl-4-pyridinyl)-8,9-difluoro-3-methyl-7-oxo-2,3-dihydro-7H-pyrido[1,2,3-de][1,4]benzoxazine-6-carboxylic acid] as the molecule, how does the EC50 (human topoisomerase II) read?
A: The EC50 was 50 µM.

Q: Which “Ki values of 50% inhibition” value [2] does the source give for CCn1cc(C(=O)O)c(=O)c2cc(F)c(N3CCNCC3)cc21 [norfloxacin, 1-ethyl-6-fluoro-7-(1-piperazinyl)-1,4-dihydro-4-oxo-3-quinolinecarboxylic acid] here?
A: The value was 300 µg/mL.

Q: What about the “enhancement/induction of DNA cleavage mediated by topoisomerase II (in words)” value [4] of the same molecule?
A: Its value is “not to be potent enhancers of DNA cleavage mediated by topoisomerase II”.

Q: With Cc1cc(-c2c(F)cc3c(=O)c(C(=O)O)cn4c3c2[S@@+]([O-])CC4C)cc(C)n1 (stereo partly drawn) [Example 4, (S)-10-(2,6-Dimethyl-4-pyridinyl)-9-fluoro-3-methyl-7-oxo-2,3-dihydro-7H-pyrido[1,2,3-de][1,4]benzothiazine-6-carboxylic acid 1-oxide] as the molecule, how does the EC50 (human topoisomerase II) read?
A: The EC50 was 62 µM.
